Consider two molecules from patent publication US10806702B2, “Bis-polymer lipid-peptide conjugates and nanoparticles thereof” (THE REGENTS OF THE UNIVERSITY OF CALIFORNIA, priority 2012, dated 2020).

Data set [1] in a line: Drug loading of micelles (thin film hydration, HPLC). Type of data set: physicochemical. The settings on record: drug encapsulated in dC18-1coi(P2K)-P750 micelles. As to the method: DOX, paclitaxel and rapamycin loaded micelles were prepared using identical procedures by thin film hydration method. dC18-1coi(P2K)-P750 and the different drugs were dissolved in methanol in a glass vial and the solvent was evaporated in vacuum oven for 3 hours. The dried film containing the conjugate and drug was rehydrated with 25 mM phosphate buffer, pH 7.4, and the solution was stirred for 16 hours to allow the assembly into drug loaded 3-helix micelles. Free drug was removed by centrifugation followed by spin ultrafiltration (Amicon centrifugal filter units, MW cutoff: 3000 Da). The concentrate obtained was washed with water and lyophilized to obtain drug loaded micelles. The drug loaded micelles were dissolved in methanol and loading was determined by reverse phase HPLC monitoring the absorbance of drugs at 280 nm. For all characterization experiments of drug loaded micelles, lyophilized powder of micellar-drugs was dissolved in 25 mM phosphate buffer, pH 7.4, and the solution was heated in water bath at 60° C. for an hour to break potential aggregates to obtain a clear solution.
The solvent was evaporated in vacuum oven for 3 hours. […] The salts and free drug were removed by centrifugation followed by spin ultrafiltration (Amicon centrifugal filter units, MW cutoff: 3000 Da). […]
Drug loading content was determined by HPLC. […]

Data set [2] concerns NDL tumors. Description: Intravenous DOX-loaded micelles: organ fluorescence in NDL tumor mice. The settings on record: 24 and 72 h. Type of data set: in vivo, FVB mice.
The conditions of data set [3]: CED, 20 μl, DOX 0.2 mg/ml, a week after infusion.
Data set [4] has as its system NDL tumors. The settings on record: stated as known; cited from earlier work.

Regarding `CC(=O)O[C@H]1C(=O)[C@@]2(C)[C@H]([C@H](OC(=O)c3ccccc3)[C@]3(O)C[C@H](OC(=O)[C@H](O)[C@@H](NC(=O)c4ccccc4)c4ccccc4)C(C)=C1C3(C)C)[C@]1(OC(C)=O)CO[C@@H]1C[C@@H]2O` [Paclitaxel, paclitaxel], the “Loading (wt %)” value in data set [1] was determined as 1.9 ± 0.4 wt %.

Take `COc1cccc2c1C(=O)c1c(O)c3c(c(O)c1C2=O)C[C@@](O)(C(=O)CO)C[C@@H]3O[C@H]1C[C@H](N)[C@H](O)[C@H](C)O1` [Doxorubicin, doxorubicin]: the “Loading (wt %)” value in data set [1] is given as 7.6 ± 0.4 wt %. In addition, the “fluorescence in different organs after free DOX injections” value in data set [2] is “cannot be detected”. Besides, the “brain tissue toxicity (H&E staining)” value in data set [3] was “significant tissue damage”. In addition, the “clearance time from blood circulation” value in data set [4] is “tens of minutes”.
